The record followed here is patent US8486974B2 (priority 2007, dated 2013).

Series [1] deals with collagen-induced human platelet aggregation. The series can be described thus: Collagen-induced human platelet aggregation in vitro. The class given is cell-based. The following applies: listed as ISAS. Here is the method: (§1) Blood was collected from healthy volunteers who had not taken any drugs known to affect platelet function for at least 14 days prior to the study. Platelet rich plasma (PRP) and washed platelet suspensions (2.5×10^8 platelets/ml) were prepared from blood as previously described.
(§2) Platelet aggregation was measured by light aggregometry as previously described. Briefly, PRP and washed platelet samples (2.5×10^8/ml) were placed in a whole blood ionized calcium lumi-aggregometer (Chronolog Corp., Havertown, Pa., U.S.A), and (BIO/DATA CORPORATION) and incubated for 10 min at 37° C., with stirring at 900 r.p.m., prior to the addition of aggregating agents. Aggregation was initiated by the addition of agonists, and monitored by Aggro-Link software for at least 6 min. For experiments using inhibitors, aggregation was initiated after 10 min preincubation with these compounds
(§3) Collagen at different concentrations (3-5 ug/ml) was also used to induce platelet aggregation. The submaximal concentrations of agonists, i.e. the concentrations that gave approximately 95% of the maximal aggregation were used to study the effects of inhibitors of aggregation. Results were expressed in percent changes in maximal light transmission, with 100% representing light transmission of platelet medium alone.

Series [2] in a line: Hydrolysis in rabbit plasma. It counts as in vitro ADME. Here is the method: Pooled plasma/serum solutions (4 ml) were prepared to the correct strength by dilution of plasma with phosphate buffer pH 7.4 (e.g. for a 10% solution 0.4 ml of plasma/serum was added to 3.6 ml of phosphate buffer pH 7.4). Following equilibration of the plasma/serum sample at 37±0.5° C. 100 μl of a stock solution of test compound in acetonitrile (1×10^−4 M) was added and 250 μl aliquots were removed at specified time intervals. Samples were transferred to 1.5 ml Eppendorf tubes containing 500 μl of a 2% w/v solution of nSO4.7H2O (water:acetonitrile, 1:1). Tubes were vortexed for 2 minutes, then centrifuged at 10,000 rpm for 3 minutes at room temperature. Supernatant was aspirated off and analysed by HPLC. The concentration of test compound and metabolites were determined with reference to calibration curves run on that day in the same concentration range and under the same experimental conditions. […] The metabolic fate of the esters under these conditions was also determined by RPHPLC by measuring the concentration of drug and metabolites in the medium as a function of time. […] The BuChE activity of plasma and microsomal samples was determined using the Ellman assay (Ellman et al., 1964). […]

A further series deals with MDA synthesis. The series can be described thus: MDA synthesis by washed platelets. It counts as cell-based.
In the next series the test system is TXB2 synthesis. The series can be described thus: Inhibition of TXB2 synthesis in clotting whole blood (ELISA). It counts as cell-based. The following applies: 1 hour at 37° C., listed as ISAS. Here is the method: TXA2 is highly evanescent and unsuitable for direct measurement but its metabolite TXB2 is generally believed to provide a useful index of the parent. […] The samples were then centrifuged. Serum was collected and TXB2 was measured using enzyme linked immunosorbent assay (ELISA) kits obtained from Cayman Chemicals.

A short description of another series: in vitro. The following applies: human, plasma, pH 7.4.
The format of series [3] is in vitro ADME. The following applies: 0.1 mM, pH 7.4. How it is done: (§4) Pooled plasma/serum solutions (4 ml) were prepared to the correct strength by dilution of plasma with phosphate buffer pH 7.4 (e.g. for a 10% solution 0.4 ml of plasma/serum was added to 3.6 ml of phosphate buffer pH 7.4). Following equilibration of the plasma/serum sample at 37±0.5° C. 100 μl of a stock solution of test compound in acetonitrile (1×10^−4 M) was added and 250 μl aliquots were removed at specified time intervals. Samples were transferred to 1.5 ml Eppendorf tubes containing 500 μl of a 2% w/v solution of nSO4.7H2O (water:acetonitrile, 1:1). Tubes were vortexed for 2 minutes, then centrifuged at 10,000 rpm for 3 minutes at room temperature. Supernatant was aspirated off and analysed by HPLC. The concentration of test compound and metabolites were determined with reference to calibration curves run on that day in the same concentration range and under the same experimental conditions. In order to mimic conditions during the first passage of the drugs after intestinal absorption selected compounds were incubated in phosphate buffer at 37° C. in the presence of microsomes from human liver (HLM) and intestinal epithelium (HIM). The metabolic fate of the esters under these conditions was also determined by RPHPLC by measuring the concentration of drug and metabolites in the medium as a function of time. The identity of participating enzymes was confirmed by using purified enzyme in the case of plasma (BuChE) and by repeating the hydrolysis experiments in the presence of esterase specific inhibitors—isoOMPA for BuChE and BNPP for carboxylesterase. The BuChE activity of plasma and microsomal samples was determined using the Ellman assay (Ellman et al., 1964).
Qualitative hydrolysis screening of Is-2-aspirinate-5-salicylate 2 (0.1 mM) was studied using guinea pig, hamster, rabbit and monkey plasma. The purpose of this test was to determine a suitable species for biological testing and preclinical development. The results were also expected to confirm the role of the human enzymes already identified because these are variously distributed in laboratory animals.

In series [4] the test system is human platelet aggregation to arachidonic acid. Briefly: Human platelet aggregation to arachidonic acid in platelet rich plasma. It counts as cell-based. How it is done:
as §1, §2

For series [5], the system named is ADP-induced platelet aggregation. Briefly: ADP-induced platelet aggregation in PRP. The class given is cell-based, human. Here is the method: as §1, §2, §3
The nature of series [6]: Hydrolysis in the presence of human intestinal microsomes (HIM), with or without esterase inhibitors. It counts as in vitro ADME. The following applies: 0.1 mM, pH 7.4.
Series [7] relates to platelet aggregation in human whole blood. Briefly: Whole blood aggregation studies (impedance method). It counts as cell-based. How it is done: A 500 μl aliquot of blood was mixed with 500 μl of physiological saline and allowed to incubate at 37° C. for 10 mins in the incubation well of a Chrono-Log Whole Blood Aggregometer model 591/592. The sample was then transferred to the assay well, baseline was established and appropriate volume of reagent as above was added. Aggregation was monitored over 6 mins with impedance output recorded on a chart recorder. When testing inhibitors whole blood was pre-incubated with appropriate concentrations of inhibitor in DMSO at 37° C. for a specified length of time before adding the stimulant (10 mins with stirring). Three different aggregating agents, AA (0.5 mM), ADP (10 μM) and Collagen (5 μg/ml) were used. […] DMSO in high concentrations (above 0.25%) can induce a concentration dependent change in platelet cytoplasmic ionised calcium. Before each experiment a control was run using PRP to obtain normal aggregating responses. A sample was also incubated for 10 min at 37° C. with 10 μl DMSO to ensure it was having no inhibitory effect on the aggregation response.

Series [8] can be described thus: Hydrolysis in human blood. The class given is in vitro ADME.
The test system of series [9] is rabbit liver carboxylesterase. The class given is in vitro ADME. The following applies: 0.1 mM.
For series [10], the target named is T1, purified human serum BuChE (Homo sapiens, UniProt P06276).
T1 construct: Purified human serum butyrylcholinesterase (EC 3.1.1.8); purchased Sigma-Aldrich; host or cells: human serum
The series can be described thus: Hydrolysis by purified human serum butyrylcholinesterase. The class given is in vitro ADME. The conditions noted are these: purified butyrylcholinesterase. Here is the method: as §4

The test system of series [11] is typical digestive proteases. The series can be described thus: Stability in the presence of digestive proteases. It counts as in vitro ADME.
The conditions of series [12]: female, human, 0.1 mM, pH 7.4.

“Also recorded” adds a separate entry of the source. Read-outs that look alike come from different tables or passages of the source. Bounds are passed on as bounds.

T1 sequence (P06276 29-602): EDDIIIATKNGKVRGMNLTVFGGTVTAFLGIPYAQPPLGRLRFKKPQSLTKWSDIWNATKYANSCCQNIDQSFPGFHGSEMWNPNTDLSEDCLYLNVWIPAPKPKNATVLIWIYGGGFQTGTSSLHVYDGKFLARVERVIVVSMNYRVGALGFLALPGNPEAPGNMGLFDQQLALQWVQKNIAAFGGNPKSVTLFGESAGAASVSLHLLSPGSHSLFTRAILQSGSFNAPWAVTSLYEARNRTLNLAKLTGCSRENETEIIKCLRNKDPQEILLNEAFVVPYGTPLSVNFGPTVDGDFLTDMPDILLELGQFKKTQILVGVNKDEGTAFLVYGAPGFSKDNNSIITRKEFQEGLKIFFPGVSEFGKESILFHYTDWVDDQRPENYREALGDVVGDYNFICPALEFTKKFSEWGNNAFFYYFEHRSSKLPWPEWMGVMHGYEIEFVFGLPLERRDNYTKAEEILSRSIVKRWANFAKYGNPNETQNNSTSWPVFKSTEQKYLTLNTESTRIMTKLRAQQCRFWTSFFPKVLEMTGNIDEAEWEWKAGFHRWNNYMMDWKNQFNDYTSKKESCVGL

In the case of `CC(=O)Oc1ccccc1C(=O)O[C@H]1CO[C@H]2[C@@H]1OC[C@H]2OC(=O)c1ccccc1O` [Compound 2, Isosorbide-2-aspirinate-5-salicylate], in series [1], the “potency relative to aspirin, inhibition of collagen-induced human platelet aggregation” value is listed as “significantly more potent than aspirin; also recorded: significantly more potent than ASA”. The “Drug disappearance” value turned out to be 20 min in series [2] (50% Rabbit Plasma, conc drug 0.1 mM); 5 min in [6]; 5 min in series [9]; 10 min in series [12]. Further, the “Drug disappearance time” value in [2] (rabbit, 0.1 mM, pH 7.4) is listed as 10 min; in series [3] (guinea pig, 1 hr), “present after 1 hr”; in series [3] (hamster), 20 min; in [3] (monkey), 5 min. Besides, in the series on MDA synthesis, the “MDA synthesis by washed platelets” value is on record as “effective”. Also, the “inhibition of TXB2 (TXA2) synthesis” value in the series on TXB2 synthesis is on record as “effective in preventing the TXA2 synthesis; also recorded: significantly more potent than aspirin”. The compound further displayed a half-life at 2.4 µM in the series “in vitro” of 2 min. Besides, in series [4], the “potency relative to aspirin, inhibition of arachidonic acid-induced human platelet aggregation” value is listed as “significantly more potent than aspirin”. Moreover, in series [5], the “potency relative to aspirin, inhibition of ADP-induced platelet aggregation” value is “significantly more potent than aspirin”. Besides, the “Drug disappearance: drug left” value in [6] (60 min) stood at 9.4 μM left. The IC50 in series [7] (Homo sapiens, Platelet, arachidonic acid, impedance method, read-out: IC50, platelet aggregation towards arachidonic acid in human whole blood) came out at 17 µM. Also, in series [7] (all of the aggregatory stimuli: AA (0.5 mM), ADP (10 μM), Collagen (5 μg/ml)), the “potency in inhibition of platelet aggregation in whole blood” value is given as “significantly greater potency than aspirin or ISDA”. Moreover, in series [8], the half-life is below 2 min. Besides, in [10], the “conversion to aspirin in the presence of purified butyrylcholinesterase” value is on record as “almost complete conversion to aspirin”. Besides, in series [11], the “stability in the presence of typical digestive proteases” value was “stable”.
